Reference: patent US5025036A, “Catechol carboxylic acids” (Hoffmann-La Roche Inc., priority 1989, dated 1991)
Counter-ions that a name gives are not always drawn.

Tests used:
[1] = biological target: T1, Δ^5 -lipoxygenase from rat basophilic leukemia (RBL-1) cells (Rattus norvegicus, UniProt P12527); experiment: In vitro test for Δ^5-lipoxygenase inhibitors (5-HETE radioimmunoassay); assay type: biochemical; settings: for IC50: RBL-1 5-LO, 5-HETE formation, read-out: Inhib. of Δ^5 Lipoxygenase IC50
T1 construct: The isolated cytosolic fraction was stored in liquid N2 for up to 8 weeks without loss of 5-LO enzyme activity; endogenous in cells; host or cells: RBL-1 cells (ATCC CRL 1378), 113,000×g supernatant (cytosol)
T1 sequence (P12527 1-673): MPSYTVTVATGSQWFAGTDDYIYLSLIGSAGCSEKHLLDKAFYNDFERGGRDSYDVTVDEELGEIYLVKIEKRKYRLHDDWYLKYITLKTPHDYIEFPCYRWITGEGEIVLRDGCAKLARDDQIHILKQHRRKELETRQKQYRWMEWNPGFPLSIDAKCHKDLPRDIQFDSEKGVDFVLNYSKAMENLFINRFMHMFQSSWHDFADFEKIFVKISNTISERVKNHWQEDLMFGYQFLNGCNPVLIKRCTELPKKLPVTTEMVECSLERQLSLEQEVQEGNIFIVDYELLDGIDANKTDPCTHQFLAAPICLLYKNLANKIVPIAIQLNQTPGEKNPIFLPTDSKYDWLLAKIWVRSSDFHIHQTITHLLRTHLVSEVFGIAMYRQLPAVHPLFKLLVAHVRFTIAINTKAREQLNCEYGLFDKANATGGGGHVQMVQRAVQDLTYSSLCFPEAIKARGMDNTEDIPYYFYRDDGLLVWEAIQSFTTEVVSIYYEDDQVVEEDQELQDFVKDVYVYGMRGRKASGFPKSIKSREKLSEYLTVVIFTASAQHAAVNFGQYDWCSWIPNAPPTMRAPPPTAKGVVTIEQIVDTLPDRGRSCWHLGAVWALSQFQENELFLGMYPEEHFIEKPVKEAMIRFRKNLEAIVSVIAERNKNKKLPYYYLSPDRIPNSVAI
Protocol: RBL-1 cells (CRL 1378) were obtained from the American Type Culture Collection, Rockville, MD. DMEM and glutamine were purchased from Flow Labs, McLean, Va. FBS (Gibco, Grand Island, N.Y.) was heat-inactivated for 1 hour at 56° C. Reagents for protein determinations were obtained from Biorad, Rockville Center, N.Y. Arachidonic acid (approx. 99%), ATP (disodium salt), BHT, dextran (clinical grade), tetrasodium EDTA, gelatin, gentamycin sulfate solution, reduced glutathione, 1 M HEPES buffer, indomethacin, NaCl, reduced NADPH, Trizma 7.2, and Trizma 8.5 were purchased from Sigma Chemical, St. Louis, Mo. CaCL2 dihydrate, Norit A charcoal, and citric acid monohydrate were obtained from Fisher Scientific, Pittsburgh, Pa. […] A synthetic 5-HETE standard was supplied by Dr. M. Rosenberger, Dept. of Medicinal Chemistry, Hoffmann La-Roche, Nutley, N.J.; [see Corey, E. J., and Hashimoto, S. (1981) Tet. […] Approximately 7-9 days after thawing, RBL-1 cells growing in log phase were seeded at a density of 7500 viable cells/ml in a closed 89-liter spinner flask. […] RBL-1 cells were harvested by centrifugation at 4° C. at 1500×g for 10 minutes and were washed 3 times with ice cold 0.05M tris-hCl, pH 7.2, tetrasodium EDTA (buffer 1). The cells were washed last in 0.05M Tris-HCl containing 14 μM indomethacin, 1 mM glutathione, 1.5 mM NaCl, and 1 mM tetrasodium EDTA (buffer 2), resuspended at a density of 5×108'/ml approximately 10 ml) and disrupted manually at 4° C. using a 40 ml Dounce (type A pestle) homogenizer. After 5 minutes of homogenization, 95% cell lysis was confirmed by phase contrast microscopy. The broken cells were diluted 1:2 with buffer 2 and centrifuged at 12,380×g for 10 minutes at 4° C. to pellet cellular debris and granules. The 12,380×g supernatant was centrifuged at 113,000×g for 60 minutes to pellet microsomes. The high-speed supernatant (5.9±0.48 mg/ml protein) was frozen immediately in 1 ml aliquots using a dry ice/acetone bath. The isolated cytosolic fraction was stored in liquid N2 for up to 8 weeks without loss of 5-LO enzyme activity. Compounds were dissolved at 25 mM concentration in DMSO, then diluted to final concentrations using 95% ethanol. For a typical enzyme assay, the partially purified 5-LO preparation was preincubated with drug or vehicle for 10 minutes at 30° C. The assay tubes were then transferred at a 37° C. water bath where they received arachidonic acid (8.25 μM final concentration) to initiate 5-LO activity. […] The samples were immediately cooled on ice and neutralized by dilution with 0.05M Tris-HCl, pH 8.5, which contained 25 mg/1 BHT. A boiled cytosol control was placed at the end of each assay to emasure non-enzymatic oxidation of arachidonic acid. […] Under the assay conditions described, the 5-LO catalyzed the conversion of arachidonic acid to 5-HPETE which, as a consequence of peroxidase activity, was reduced to 5-HETE. A specific radioimmunoassay was employed to quantitate the amount (pmoles) of 5-HETE formed during the enzyme reaction. To prepare the immunogen, Dr. M. Rosenberger (Dept. of Medicinal Chemistry) converted the racemic 5-HETE lactone (Corey, E. J., and Hashimoto, S. (1981) Tet. Letters, 22, 299-302) to its hydrazine derivative. The hydrazide was conjugated to thiolated Keyhole Limpet Hemocyanin (Young, […]., and Rokach, J. (1982) Prostaglandins 23, 603-613) using N-ethyl-maleimide as previously described for LTB4 by (Young, R., N, Zomboni, R. and Rokach, J. 91983) Prostaglandins, 26, 605-613). New Zealand White rabbits received multiple intradermal injections on their backs with […] conjugate emulsified in complete Freund's adjuvant. A schedule of injections reported by Salmon (Salmon, J. A. (1978) Prostaglandins, 15, 383-397) was followed. After the monthly i.p. booster injections, blood was obtained from the marginal ear vein 5-7 days later and assessed for antibody titer. […]

Carrageenan pleurisy = experiment: Carrageenan Pleurisy Test (In Vivo); design: species or system male Lewis rats; settings: Rattus norvegicus, po; at 100 mg/kg p.o; read-out: Rat Carrageenan Pleurisy % Inhib. of Exudate Volume
Protocol: The animals utilized in these studies were male Lewis rats (Charles River Breeding Laboratories) weighing between 230-250 g. […] At 5 or 24 hours after CG injection, the rats were killed by decapitation, exsanguinated, and the pleural cavity exposed by cutting the ribs on both sides of the sternum. The exudate fluid was removed from the pleural cavity with disposable plastic pipettes and its volume quantitated. The pleural cavity was then washed once with phosphate buffered saline containing fetal bovine serum (1:1) and the washings combined with the exudate. The total number of cells in the pleural cavity was quantitated using a Coulter Counter (Model ZM) adjusted to exclude any contaminating RBC. (Published in "Plant Flavonoids in Biology & Medicine: Biochemical, Pharmacological and Structure-Activity Relationships" p. 231-242 (1986) Alan R. Liss, Inc.)

ear edema = experiment: Mouse Ear Edema Test (In Vivo), arachidonic acid; design: species or system CD-1 male mice; settings: topical, 1 h, at 1 mg topically
Source text: Invest. Dermatol. 80:48 (1983) and Hames, Opas and Bonney, "Arachidonic Acid Metabolites in Mouse Ear Edema" Advances in Inflammation Research, 11:57 (1986). […] CD-1 male mice weighing 15 to 25 g were employed, and they were designated as follows: (1) Control Group, in which no arachidonic acid or test compound was to be applied, (2) Arachidonic Acid-Treated Group, in which no test compound was to be applied, and (3) Treated Group, in which the test compound was to be applied first, followed by the application of arachidonic acid. In the case of the Group (3) animals, the test compound, dissolved in acetone, was applied to the dorsal surface of the right ear of the mouse with a 25-microliter pipettor, with the dose of the test compound being varied. After 0.5 hours in some cases and 4 hours in others, the arachidonic acid was topically applied in the same manner as above to the pretreated ear areas. In each case of arachidonic acid application, an amount of 0.5 mg dissolved in 25 microliters of acetone was used. After 1 hour, the mice were sacrificed by carbon dioxide inhalation. A 6 mm-diameter standard biopsy punch was used to obtain a uniform tissue sample from the ear of each mouse so treated, and the tissue samples were weighed to the nearest 0.1 mg. The percent inhibition of ear edema formation was calculated as follows: [formula]

Compound	IC50 [1] [nM]	inhibition in vivo at 100 mg/kg (Carrageenan pleurisy) [%]	inhibition in vivo at 1 mg (ear edema) [%]	inhibition at 0.1 µM ([1]; read-out: Inhib. of Δ^5 Lipoxygenase, % inhibition at 0.1 μM) [%]
CCCc1c(OCCCCCCc2cccc(O)c2O)ccc(C(=O)OCCN(CC)CC)c1O [4-[6-(2,3-Dihydroxyphenyl)hexyloxy]-2-hydroxy-3-propylbenzoic acid [2-(diethylamino)ethyl]ester hydrochloride]	670	42	48	
CCCc1cc(C(=O)O)cc(CCC)c1OCCCCCCc1cccc(O)c1O [4-[6-(2,3-Dihydroxyphenyl)hexyloxy]-3,5-dipropylbenzoic acid]	460		59	
CCCc1c(OCCCCCCCCc2cccc(O)c2O)ccc(C(C)=O)c1O [1-[2-hydroxy-4-[8-(2,3-dihydroxyphenyl)octyloxy]-3-propylphenyl]ethanone]		0	0	95
CCCc1cc(C(=O)O)ccc1OCCCCCCc1cccc(O)c1O [4-[6-(2,3-Dihydroxyphenyl)hexyloxy]-3-propylbenzoic acid]	20	0	52	
